What all share (format): cell-based, human
Data set [1] in a line: MTT assay, cytotoxicity test on HaCaT cells. The settings on record: human, hacat cells, percentage of untreated cells (NT), read-out: Cell viability. The protocol: (§1) Cells vitality is measured as absorbance after MTT treatment. Values are expressed as absorbance percentage over untreated (NT) cells; 1 mg/ml SDS is used as positive control; the boxes show the three highest non-toxic concentrations of each compound.
(§2) Cell lines of immortalized human keratinocyes (HaCaT cells) were grown at 37 °C, 5% CO2 in DMEM culture medium, added with 1% non-essential aminoacids and 10% FBS. The cells were plated in 96-wells multi-well plates at 10^4 cells/well, in 10% FBS -DMEM. The day after, the culture medium was removed and substituted with 100 µL of complete medium with 1% FBS; then, an MTT assay was carried out after treating cells with the single ingredients prepared in Example 1.
(§3) As positive control of toxicity, sodium dodecyl sulfate (SDS) was used, at the concentration of 1 mg/ml.
(§4) The cells were incubated for 24 hours at 37°C and 5% CO2.
(§5) At the end of each incubation, the reagent 3-(4,5-dimethylthiazol-2-yl)-2,5-diphenyltetrazolium bromide (MTT) was added to each well, at the final concentration of 0.45 mg/mL. The plates were then incubated for an additional 2 hours, at 37 °C and 5% CO2.
(§6) At the end of the incubation, the crystals of reduced MTT were solubilized by removing the medium and adding 100 µL of dimethyl sulfoxide (DMSO) to each well.
(§7) Finally, the absorbance at 595 nm of each sample was measured, using an Infinite M NANO+ (Tecan) plate reader.
(§8) The cell viability following treatment with the different substances was analyzed. Cell viability is expressed as percentage of absorbance at 595 nm of untreated cells (NT).

The test system of a further data set is IL-6. Description: ELISA of IL-6 production in TNFα-inflamed HaCaT cells. The settings on record: TNFα 20 ng/ml overnight, then 24 hours of treatment. The protocol:
Cell lines of immortalized human keratinocytes (HaCaT cells) were grown at 37 °C, 5% CO2 in DMEM culture medium, added with 1% non-essential aminoacids and 10% FBS. The cells were plated in 48-wells multi-well plates at 5*10^4 cells/ml, in 10% FBS DMEM. The day after, the culture medium was removed and substituted with 500 µL of complete medium without FBS and at the same time an inflammatory process was induced by treatment with TNFα 20 ng/ml, maintained over/night. This stimulus induces an increase in production of these cytokines compared to controls not receiving TNFα.
An experimental group of untreated cells was included, as a negative control of inflammation.
The following day, the inflamed cells were treated with each ingredient prepared in Example 1, at the highest non-toxic concentrations identified in Example 2. • Cannabidiol (CBD): 0.031 (w/v) • GPI lysine (GPI): 0.31 (w/v) • lactoferrin hydrolysate (LAC): 1 (w/v). […]
The dosage of the pro-inflammatory cytokine IL-6 (interleukin 6) was performed on 100 µL of each of the stored aliquots, following the kit protocol provided by the manufacturer. […] The anti-inflammatory effect of the compounds and compositions testes is expressed as a percentage of interleukin's production, with respect to inflamed cells (TNFα-treated) not subjected to anti-inflammatory treatment.
(In an ELISA, binding on a coated surface is turned into a signal by an enzyme label.)

In a further data set the test system is HaCaT cells. Put plainly: MTT assay, cytotoxicity test on HaCaT cells. To be noted: 24 hours. The protocol: as §1, §2, §3, §4, §5, §6, §7, §8
On the technique in general: Tetrazolium assays rely on reduction of a dye to a coloured formazan, in cell work by metabolically active cells.

The structures appear in SMILES notation. Read-outs that look alike come from different tables or passages of the source.

Consider two compounds from patent publication EP4523699A1, “ANTI-INFLAMMATORY DERMATOLOGICAL COMPOSITION COMPRISING GLYCEROPHOSPHOINOSITOL, A LACTOFERRIN HYDROLYSATE AND A CANNABINOID, IN PARTICULAR FOR TREATING SEBORRHEIC DERMATITIS” (FB Dermo srl, priority 2023, dated 2025).

As a reminder, the viability is a read-out of living cells in per cent, often relative to untreated cells. Consider `C=C(C)[C@@H]1CCC(C)=C[C@H]1c1c(O)cc(CCCCC)cc1O` [CBD, cannabidiol], for which the viability at 24 h in data set [1] (concentration 0.063 % w/v) is about 50%; in data set [1] (concentrations from 0.031 to 0.004 % w/v), about 80%. In addition, the activity at 0.03 % in the data set on IL-6 (Homo sapiens, 0.03% (w/v)) was found to be 99%.

Take `O=P(O)(OC[C@H](O)CO)OC1[C@H](O)[C@H](O)C(O)[C@H](O)[C@H]1O` (stereo partly drawn) [GPI Lysine, glycerophosphoinositol]: the Cell viability result with HaCaT cells (percentage of absorbance at 595 nm of untreated cells (NT), concentration 0.0313 % v/v) is reported as “Above 50%”; with HaCaT cells (percentage of untreated cells (NT), concentrations of 0.0156 - 0.001 % v/v), “around 80%”. Besides, the “IL-6 production (% vs TNFα) Mean” value with IL-6 (0.031% (v/v)) was found to be 96 % vs TNFα.
